This is an account of results in ChEMBL document CHEMBL5143564, “PES derivative PESA is a potent tool to globally profile cellular targets of PES” (Bioorg Med Chem Lett, 2022).

Structures are written as SMILES. Calls of active or inactive are those of the source. The calls are words filed in the database; no cut-off is given here.

Data set [1] can be described thus: GSH reactivity in pH 7.4 buffer assessed as GSH adduct formation at 1 mM by HPLC analysis. The format is physicochemical. To be noted: pH 7.4, 1000 µM.
Data set [2] is described as follows: GSH reactivity in pH 7.4 buffer assessed as GSH adduct formation by measuring molecular weight at 1 mM by Q-TOF LC/MS analysis. The format is physicochemical. To be noted: pH 7.4, 1000 µM.
The nature of data set [3]: GSH reactivity in pH 7.4 buffer assessed as GSH adduct formation by measuring half life at 50 uM by near-UV absorbance spectra analysis. The format is physicochemical. To be noted: pH 7.4, 50 µM.
The species entered for data set [4] is Homo sapiens. Kind of data set: Binding affinity to ADP-bound full-length human HSP70 assessed as cysteine adduct formation at SBDalpha domain by measuring half life at 1 mM by fluorescence spectra analysis.
The species named for data set [5] is Homo sapiens. Kind of data set: Binding affinity to human HSP70 SBDalpha domain (537 to 610 residues) C574S mutant assessed as Cys603 adduct formation by size exclusion chromatography.
The species named for data set [6] is Homo sapiens. Kind of data set: Binding affinity to ADP-bound full-length human HSP70 assessed as Cys603 adduct formation by size exclusion chromatography.
Data set [7] deals with HEK-293T. As to the kind of experiment: Cytotoxicity against HEK293T cells up to 20 uM measured after 24 hrs. As to conditions: human. The format is toxicity, cell-based.
In data set [8] the test system is Jurkat. Kind of data set: Cytotoxicity against human Jurkat T cells up to 20 uM measured after 24 hrs. The format is functional, cell-based.
Data set [9] concerns DOHH-2. As to the kind of experiment: Cytotoxicity against human DOHH-2 cells up to 20 uM measured after 24 hrs. Type of data set: functional, cell-based.
In data set [10] the test system is Jurkat. Kind of data set: Cytotoxicity against human Jurkat T cells measured after 72 hrs. Type of data set: functional, cell-based.
Data set [11] has as its system DOHH-2. As to the kind of experiment: Cytotoxicity against human DOHH-2 cells measured after 72 hrs. The format is functional, cell-based.
Data set [12] relates to MDA-MB-453. Kind of data set: Cytotoxicity against human MDA-MB-453 cells measured after 72 hrs. Type of data set: functional, cell-based.
The test system of data set [13] is HepG2. As to the kind of experiment: Cytotoxicity against human HepG2 cells measured after 72 hrs. Type of data set: functional, cell-based.
Data set [14] relates to DOHH-2. As to the kind of experiment: Induction of apoptosis in human DOHH-2 cells assessed as increase in cleaved caspase-3 expression at 12 uM measured after 4 to 24 hrs by Western blot analysis. The format is functional, cell-based. To be noted: time 4-24 hrs.
In data set [15] the test system is DOHH-2. As to the kind of experiment: Induction of apoptosis in human DOHH-2 cells assessed as increase in cleaved PARP expression at 12 uM measured after 4 to 24 hrs by Western blot analysis. The format is functional, cell-based. To be noted: time 4-24 hrs.
For data set [16], the system named is DOHH-2. Kind of data set: Induction of apoptosis in human DOHH-2 cells assessed as increase in cleaved caspase-3 expression at 0.5 to 12 uM measured after 24 hrs by Western blot analysis. Type of data set: functional, cell-based. As to conditions: dose 0.5-12 µM. (In western blotting, separated proteins are transferred to a membrane and probed.)
In data set [17] the test system is DOHH-2. Kind of data set: Induction of apoptosis in human DOHH-2 cells assessed as increase in cleaved PARP expression at 0.5 to 12 uM measured after 24 hrs by Western blot analysis. The format is functional, cell-based. To be noted: dose 0.5-12 µM.
Data set [18] has as its system DOHH-2. As to the kind of experiment: Induction of autophagy in human DOHH-2 cells assessed as reduction in p62 expression at 12 uM measured after 4 to 24 hrs by Western blot analysis. To be noted: time 4-24 hrs. The format is functional, cell-based.
The test system of data set [19] is DOHH-2. Kind of data set: Induction of autophagy in human DOHH-2 cells assessed as reduction in p62 expression at 0.5 to 12 uM measured after 24 hrs by Western blot analysis. The format is functional, cell-based. As to conditions: dose 0.5-12 µM.
Data set [20] concerns DOHH-2. Kind of data set: Induction of autophagy in human DOHH-2 cells assessed as change in transformation of LC3B1 to LC3B2 expression at 12 uM measured after 4 to 24 hrs by Western blot analysis. The format is functional, cell-based. To be noted: time 4-24 hrs.
The test system of data set [21] is DOHH-2. Kind of data set: Induction of autophagy in human DOHH-2 cells assessed as change in transformation of LC3B1 to LC3B2 expression at 0.5 to 12 uM measured after 24 hrs by Western blot analysis. The format is functional, cell-based. To be noted: dose 0.5-12 µM.
Data set [22] has as its system DOHH-2. Kind of data set: Up regulation of HSP70 expression in human DOHH-2 cells at 12 uM measured after 4 to 24 hrs by Western blot analysis. The format is functional, cell-based. As to conditions: time 4-24 hrs.
The subject of data set [23] is DOHH-2. As to the kind of experiment: Up regulation of HSP70 expression in human DOHH-2 cells at 0.5 to 12 uM measured after 24 hrs by Western blot analysis. Type of data set: functional, cell-based. To be noted: dose 0.5-12 µM.
In data set [24] the test system is DOHH-2. As to the kind of experiment: Up regulation of HSP90alpha expression in human DOHH-2 cells at 12 uM measured after 4 to 24 hrs by Western blot analysis. The format is functional, cell-based. As to conditions: time 4-24 hrs.
Data set [25] has as its system DOHH-2. Kind of data set: Up regulation of HSP90alpha expression in human DOHH-2 cells at 0.5 to 12 uM measured after 24 hrs by Western blot analysis. To be noted: dose 0.5-12 µM. Type of data set: functional, cell-based.
In data set [26] the test system is DOHH-2. As to the kind of experiment: Induction of apoptosis in human DOHH-2 cells assessed as increase in cleaved caspase-3 expression at 10 uM measured after 4 to 24 hrs by Western blot analysis. Type of data set: functional, cell-based. As to conditions: time 4-24 hrs.
The subject of data set [27] is DOHH-2. Kind of data set: Induction of apoptosis in human DOHH-2 cells assessed as increase in cleaved PARP expression at 10 uM measured after 4 to 24 hrs by Western blot analysis. The format is functional, cell-based. As to conditions: time 4-24 hrs.
The subject of data set [28] is DOHH-2. As to the kind of experiment: Induction of apoptosis in human DOHH-2 cells assessed as increase in cleaved caspase-3 expression at 0.5 to 10 uM measured after 24 hrs by Western blot analysis. The format is functional, cell-based. To be noted: dose 0.5-10 µM.
Data set [29] has as its system DOHH-2. Kind of data set: Induction of apoptosis in human DOHH-2 cells assessed as increase in cleaved PARP expression at 0.5 to 10 uM measured after 24 hrs by Western blot analysis. Type of data set: functional, cell-based. As to conditions: dose 0.5-10 µM.
Data set [30] relates to DOHH-2. Kind of data set: Induction of autophagy in human DOHH-2 cells assessed as reduction in p62 expression at 10 uM measured after 4 to 24 hrs by Western blot analysis. To be noted: time 4-24 hrs. The format is functional, cell-based.
Data set [31] concerns DOHH-2. As to the kind of experiment: Induction of autophagy in human DOHH-2 cells assessed as reduction in p62 expression at 0.5 to 10 uM measured after 24 hrs by Western blot analysis. To be noted: dose 0.5-10 µM. Type of data set: functional, cell-based.
In data set [32] the test system is DOHH-2. Kind of data set: Induction of autophagy in human DOHH-2 cells assessed as change in transformation of LC3B1 to LC3B2 expression at 10 uM measured after 4 to 24 hrs by Western blot analysis. Type of data set: functional, cell-based. As to conditions: time 4-24 hrs.
Data set [33] concerns DOHH-2. Kind of data set: Induction of autophagy in human DOHH-2 cells assessed as change in transformation of LC3B1 to LC3B2 expression at 0.5 to 10 uM measured after 24 hrs by Western blot analysis. As to conditions: dose 0.5-10 µM. The format is functional, cell-based.
Data set [34] has as its system DOHH-2. Kind of data set: Up regulation of HSP70 expression in human DOHH-2 cells at 10 uM measured after 4 to 24 hrs by Western blot analysis. The format is functional, cell-based. As to conditions: time 4-24 hrs.
In data set [35] the test system is DOHH-2. Kind of data set: Up regulation of HSP70 expression in human DOHH-2 cells at 0.5 to 10 uM measured after 24 hrs by Western blot analysis. Type of data set: functional, cell-based. As to conditions: dose 0.5-10 µM.
Data set [36] deals with DOHH-2. Kind of data set: Up regulation of HSP90alpha expression in human DOHH-2 cells at 10 uM measured after 4 to 24 hrs by Western blot analysis. The format is functional, cell-based. As to conditions: time 4-24 hrs.
Data set [37] deals with DOHH-2. Kind of data set: Up regulation of HSP90alpha expression in human DOHH-2 cells at 0.5 to 10 uM measured after 24 hrs by Western blot analysis. Type of data set: functional, cell-based. As to conditions: dose 0.5-10 µM.

As to `NS(=O)(=O)C#Cc1ccccc1`, the Activity result in data set [1] was “Active”; in data set [2] it was 489 Da; in data set [7] it was “Non-Toxic”. Also, the t1/2 in data set [3] worked out at 12.26 min. In addition, the T1/2 in data set [4] amounted to 272 min. For the same compound, the outcome in data set [5], in [6], in [8], in data set [9], in data set [10] and in data set [11] was Active. The outcome in data set [12], in data set [13], in [14], in data set [15], in [16] and in [17] was Active. Moreover, the result in [18], in data set [19], in [20], in data set [21], in [22] and in [23] was Active. The outcome in data set [24] and in data set [25] was Active.
As to `NS(=O)(=O)C#Cc1cccc(Cl)c1`, in data set [3], the t1/2 turned out to be 2.97 min. Besides, the T1/2 in data set [4] amounted to 59.9 min. Moreover, the outcome in data set [5], in [6], in [8], in [9], in data set [10] and in data set [11] was Active. Besides, the outcome in [12], in data set [13], in data set [26], in [27], in data set [28] and in [29] was Active. In addition, the result in [30], in [31], in data set [32], in [33], in data set [34] and in [35] was Active. For the same compound, the result in data set [36] and in data set [37] was Active. Also, in [7], the Activity entry is reported as “Non-Toxic”.
